# Measured values: patent US9322066B2, “Predictors for cancer treatment” (priority 2011, dated 2016)
# Test system: relapsed or refractory, rituximab-naive or -sensitive follicular B-cell NHL
# Experiment: Progression-free survival (PFS), Vc-R vs rituximab study, by biomarker
# Assay type: in vivo, human
# Source text: Non-Hodgkin lymphoma (NHL) encompasses several unique malignant lymphoid disease entities that vary in clinical behavior, morphologic appearance, immunologic, and molecular phenotype. […] A randomized, open-label, active-controlled, multicenter, multinational, prospective study to compare the efficacy and safety of the combination of bortezomib and rituximab (Vc-R) to single-agent rituximab in subjects who have relapsed or refractory, rituximab-naive or -sensitive follicular B-cell NHL was performed.
# Subjects were centrally randomized to Treatment Groups A (Vc-R) or B (rituximab) in a 1:1 ratio taking into account the following stratification factors: • Follicular Lymphoma International Prognostic Index (FLIPI) score (low [0 or 1 factor], intermediate [2 factors], high [≧3 factors]); • Prior rituximab therapy (yes, no); • Time since last dose of anti-lymphoma therapy (≦1 year, >1 year); • Region (United States/Canada, European Union, Rest of World).
# The following clinical endpoints were included in the analysis within each treatment group and an overall comparison was made with the biomarker-related endpoints: Progression-free survival, defined as the interval between the date of randomization and the date of progressive disease (PD) or death, whichever is first reported in the ITT population; overall survival; overall response rate (complete response [CR]+CR unconfirmed [CRu]+partial response [PR]); overall CR rate (CR+CRu); duration of response; time to next anti-lymphoma therapy; and treatment free interval.
# For single-marker association analyses and pair-wise comparisons, a log rank test and Cox proportional hazard model was utilized for assessments of PFS, TTP, and OS between the treatment groups. Kaplan-Meier curves were utilized to estimate the distribution differences between groups in the time-to-event analyses. Comparison of the response rates between the treatment groups was conducted using the Fishers exact test. Single-marker association analyses were stratified by the covariates.
# For pair-wise comparison analysis, biomarker pairs were formed by combinations of two markers. A log rank test was utilized for assessments of PFS, TTP, and OS between the treatment groups in the subpopulation defined by biomarker pairs. Kaplan-Meier curves were utilized to estimate the distribution differences between groups in the time-to-event analyses. Comparison of the response rates between the treatment groups was conducted using the Fishers exact test. Methods of Analysis for the multiple biomarker comparison models can be found in section 4.6.
# The stratified log rank test and Cox proportional hazard model was utilized for assessments of PFS between the treatment groups. The Kaplan-Meier method was to be used to estimate the distribution of overall PFS for each treatment group in the biomarker population, and overall; stratified by expression level, SNP, or mutation (or covariate groups as noted above). The hazard ratio and 95% confidence interval was based on a stratified Cox's proportion hazard model with treatment as the explanatory variable. Analyses were done for the population overall and by treatment group, and each of these analyses were also stratified by the following factors if sufficient sample size existed: […]
substance,measurement,setting,value
rituximab,Median PFS (Vc-R vs R),"PSMB1/P11A C/G + P65 % POSITIVE CYTOPLASMIC SIGNAL >90%, Excluded",348 days
same,Median PFS (Vc-R vs R),"PSMB1/P11A C/G + P65 % POSITIVE CYTOPLASMIC SIGNAL >90%, Selected",278 days
same,Median PFS (Vc-R vs R),"PSMB1/P11A C/G + P65 % POSITIVE CYTOPLASMIC SIGNAL >90%, Total",338 days
same,Median PFS (Vc − R vs R),"PSMB1/P11A C/G + PSMB9/R60H G/G, Excluded",346 days
same,Median PFS (Vc − R vs R),"PSMB1/P11A C/G + PSMB9/R60H G/G, Selected",288 days
same,Median PFS (Vc − R vs R),"PSMB1/P11A C/G + PSMB9/R60H G/G, Total",345 days
same,Median PFS (Vc-R vs R),"PSMB1/P11A G/G + PSMB5/R24C C/T, Excluded",345 days
same,Median PFS (Vc-R vs R),"PSMB1/P11A G/G + PSMB5/R24C C/T, Selected",237.5 days
same,Median PFS (Vc-R vs R),"PSMB1/P11A G/G + PSMB5/R24C C/T, Total",345 days
same,Median PFS (Vc − R vs R),"PSMB5/R24AC C/C + 20S % NUCLEAR STAINING 30-90, Excluded",346 days
same,Median PFS (Vc − R vs R),"PSMB5/R24C C/C + 20S % NUCLEAR STAINING 30-90, Selected",281 days
same,Median PFS (Vc − R vs R),"PSMB5/R24C C/C + 20S % NUCLEAR STAINING 30-90, Total",345 days
same,PFS median,PSMB5/R24C C/T,9.3 mo
same,PFS median,PSMB5/R24C C/T & CD68 POSITIVE FOLLICULAR: 0-50,7.2 mo
same,PFS median,PSMB5/R24C C/T & P65 INTENSITY CYTOPLASMIC SIGNAL <=1+,10.4 mo
same,Median PFS (Vc-R vs R),"PSMB5/R24C C/T + CD68 POSITIVE FOLLICULAR 0-50, Total",345 days
same,Median PFS (Vc-R vs R),"PSMB9/R60H A/G + 20S % POSITIVE CYTOPLASMIC SIGNAL 95-100, Excluded",347 days
same,Median PFS (Vc-R vs R),"PSMB9/R60H A/G + 20S % POSITIVE CYTOPLASMIC SIGNAL 95-100, Selected",273 days
same,Median PFS (Vc-R vs R),"PSMB9/R60H A/G + 20S % POSITIVE CYTOPLASMIC SIGNAL 95-100, Total",345 days
same,Median PFS (Vc − R vs R),"PSMB9/R60H A/G + CD68 OVERALL POSITIVE 0-50, Excluded",349 days
same,Median PFS (Vc − R vs R),"PSMB9/R60H A/G + CD68 OVERALL POSITIVE 0-50, Selected",273 days
same,Median PFS (Vc − R vs R),"PSMB9/R60H A/G + CD68 OVERALL POSITIVE 0-50, Total",345 days
same,Median PFS (Vc-R vs R),"PSMB9/R60H A/G + CD68 POSITIVE FOLLICULAR 0-50, Excluded",349 days
same,Median PFS (Vc-R vs R),"PSMB9/R60H A/G + CD68 POSITIVE FOLLICULAR 0-50, Selected",273 days
same,Median PFS (Vc-R vs R),"PSMB9/R60H A/G + CD68 POSITIVE FOLLICULAR 0-50, Total",345 days
same,PFS median,PSMB9/R60H G/G & P65 % NUCLEAR STAINING: >0,9.5 mo
same,Median PFS (Vc − R vs R),"PSMB9/R60H G/G + 20S % NUCLEAR STAINING 30-90, Excluded",345 days
same,Median PFS (Vc-R vs R),"PSMB9/R60H G/G + 20S % NUCLEAR STAINING 30-90, Selected",280 days
same,Median PFS (Vc − R vs R),"PSMB9/R60H G/G + 20S % NUCLEAR STAINING 30-90, Total",345 days
same,PFS median,Prior RX: 1 & CD68 POSITIVE FOLLICULAR: 0-50,9.3 mo
same,PFS median,Prior Ritutux NO & CD68 POSITIVE FOLLICULAR: 0-50,9.2 mo
same,PFS median,Race Group OTHER & 20S % NUCLEAR STAINING: >20,3.8 mo
same,Median PFS (Vc-R vs R),"SEX MALE + 20S % NUCLEAR STAINING 30-90, Excluded",357 days
same,Median PFS (Vc-R vs R),"SEX MALE + 20S % NUCLEAR STAINING 30-90, Selected",235 days
same,Median PFS (Vc-R vs R),"SEX MALE + 20S % NUCLEAR STAINING 30-90, Total",345 days
same,Median PFS (Vc − R vs R),"SEX MALE + P65 % POSITIVE CYTOPLASMIC SIGNAL >90%, Excluded",375 days
same,Median PFS (Vc − R vs R),"SEX MALE + P65 % POSITIVE CYTOPLASMIC SIGNAL >90%, Selected",271 days
same,Median PFS (Vc − R vs R),"SEX MALE + P65 % POSITIVE CYTOPLASMIC SIGNAL >90%, Total",345 days
same,Median PFS (Vc-R vs R),Selected: 20S % NUCLEAR STAINING 30-90 and P65 % POSITIVE CYTOPLASMIC SIGNAL >90%,277 days
same,Median PFS (Vc-R vs R),Selected: AGEGRP <=65 and CD68 OVERALL POSITIVE 0-50,279 days
same,Median PFS (Vc-R vs R),Selected: AGEGRP <=65 and P65 % POSITIVE CYTOPLASMIC SIGNAL >90%,277 days
same,Median PFS (Vc-R vs R),Selected: CD68 OVERALL POSITIVE 0-50 and P65 % POSITIVE C[…] >90%,279 days
same,Median PFS (Vc-R vs R),Selected: FLIPI High and P65 % POSITIVE CYTOPLASMIC SIGNAL >90%,212 days
same,Median PFS (Vc-R vs R),Selected: PRITUX NO and P65 % NUCLEAR STAINING 0,287 days
same,Median PFS (Vc-R vs R),Selected: PSMB1/P11A C/G and ANNARBOR >=III,275 days
same,Median PFS (Vc-R vs R),Selected: PSMB1/P11A C/G and P65 % NUCLEAR STAINING 0,279 days
same,PFS median,Sex MALE & 20S % NUCLEAR STAINING: >20,7.7 mo
same,Median PFS (Vc-R vs R),"TLAST >1 year + CD68 POSITIVE FOLLICULAR 0-50, Excluded",288 days
same,Median PFS (Vc-R vs R),"TLAST >1 year + CD68 POSITIVE FOLLICULAR 0-50, Selected",357 days
same,Median PFS (Vc-R vs R),"TLAST >1 year + CD68 POSITIVE FOLLICULAR 0-50, Total",346 days
same,Median PFS (Vc − R vs R),"TLAST >1 year + P65 % POSITIVE CYTOPLASMIC SIGNAL >90%, Excluded",280 days
same,Median PFS (Vc − R vs R),"TLAST >1 year + P65 % POSITIVE CYTOPLASMIC SIGNAL >90%, Selected",357 days
same,Median PFS (Vc − R vs R),"TLAST >1 year + P65 % POSITIVE CYTOPLASMIC SIGNAL >90%, Total",345 days
same,PFS median,"Total biomarker evaluable, N = 356",11.3 months
same,Median PFS (Vc-R vs R),Total: 20S % NUCLEAR STAINING 30-90 and P65 % POSITIVE CYTOPLASMIC SIGNAL >90%,345 days
same,Median PFS (Vc-R vs R),Total: AGEGRP <=65 and CD68 OVERALL POSITIVE 0-50,345 days
same,Median PFS (Vc-R vs R),Total: AGEGRP <=65 and P65 % POSITIVE CYTOPLASMIC SIGNAL >90%,345 days
same,Median PFS (Vc-R vs R),Total: CD68 OVERALL POSITIVE 0-50 and P65 % POSITIVE C[…] >90%,345 days
same,Median PFS (Vc-R vs R),Total: FLIPI High and P65 % POSITIVE CYTOPLASMIC SIGNAL >90%,345 days
same,Median PFS (Vc-R vs R),Total: PRITUX NO and P65 % NUCLEAR STAINING 0,345 days
same,Median PFS (Vc-R vs R),Total: PSMB1/P11A C/G and ANNARBOR >=III,345 days
same,Median PFS (Vc-R vs R),Total: PSMB1/P11A C/G and P65 % NUCLEAR STAINING 0,338 days
same,PFS,"confirmation cohort 1 (excludes China; n=106), biomarker positive",9.5 months
same,median PFS,"confirmation cohort 2 (includes China subjects and subjects with missing data), biomarker positive",9.5 months
same,PFS,"discovery cohort, CD68 Low and PSMB P11A",8.5 months
same,median PFS,subjects with PSMB1 P11A (C/G),9.5 months
same,median PFS,subjects with higher CD68 expression,16.2 months
same,median PFS,subjects with low CD68 (0-50),9.3 months
